Results published in patent US9533952B2, “N-prop-2-ynyl carboxamide derivatives and their use as TRPA1 antagonists” (Orion Corporation, priority 2012, dated 2017).

Target: TRPA1 (Homo sapiens, UniProt O75762)
Assay: Determination of TRPA1 activity in vitro (TRPA1 antagonism in vitro)
Assay type: cell-based
Settings: procedure of Wei et al., Anesthesiology 111 (2009) 147-154

Chain of TRPA1 (O75762 whole entry): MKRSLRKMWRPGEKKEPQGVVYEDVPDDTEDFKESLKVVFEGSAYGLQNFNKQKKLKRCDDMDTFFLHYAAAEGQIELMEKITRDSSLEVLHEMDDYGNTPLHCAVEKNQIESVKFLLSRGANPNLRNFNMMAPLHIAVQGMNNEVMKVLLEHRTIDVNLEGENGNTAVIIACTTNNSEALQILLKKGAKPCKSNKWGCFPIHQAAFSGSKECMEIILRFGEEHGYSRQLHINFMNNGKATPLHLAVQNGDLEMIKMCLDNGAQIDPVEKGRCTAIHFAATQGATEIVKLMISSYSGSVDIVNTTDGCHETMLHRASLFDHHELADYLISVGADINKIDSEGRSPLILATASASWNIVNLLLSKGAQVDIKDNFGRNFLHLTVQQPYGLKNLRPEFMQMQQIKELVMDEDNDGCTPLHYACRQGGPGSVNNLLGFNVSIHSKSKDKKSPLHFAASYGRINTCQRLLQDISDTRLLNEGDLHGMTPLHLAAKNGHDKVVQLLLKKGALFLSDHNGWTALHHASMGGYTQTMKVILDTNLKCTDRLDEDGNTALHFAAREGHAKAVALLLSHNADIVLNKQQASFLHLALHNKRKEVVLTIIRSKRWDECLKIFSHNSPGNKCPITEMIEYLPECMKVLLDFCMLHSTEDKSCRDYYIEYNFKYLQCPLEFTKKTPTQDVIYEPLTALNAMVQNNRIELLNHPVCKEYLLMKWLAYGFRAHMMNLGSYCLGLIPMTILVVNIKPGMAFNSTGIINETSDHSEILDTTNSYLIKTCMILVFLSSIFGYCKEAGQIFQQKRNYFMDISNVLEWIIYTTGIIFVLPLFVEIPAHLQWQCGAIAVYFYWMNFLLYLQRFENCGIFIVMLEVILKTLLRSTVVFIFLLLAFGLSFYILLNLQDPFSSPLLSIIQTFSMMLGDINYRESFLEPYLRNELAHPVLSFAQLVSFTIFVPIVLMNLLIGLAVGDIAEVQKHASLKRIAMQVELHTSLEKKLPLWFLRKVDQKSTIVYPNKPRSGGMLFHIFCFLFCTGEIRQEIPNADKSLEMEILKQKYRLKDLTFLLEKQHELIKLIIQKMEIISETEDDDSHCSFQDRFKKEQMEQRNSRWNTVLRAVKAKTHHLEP

| IC50 [nM] | SMILES |
| --- | --- |
| 100 | C#CC(C)(CC)NC(=O)c1cccnc1Nc1ccc(F)c(F)c1 (stereo not shown) [Example 195, 2-(3,4-Difluorophenylamino)-N-(3-methylpent-1-yn-3-yl)nicotinamide] |
| 3200 | C#CC(C)(C)NC(=O)c1cccnc1Nc1ccc(Cl)c(OC)c1 [Example 196, 2-(4-Chloro-3-methoxyphenylamino)-N-(2-methylbut-3-yn-2-yl)nicotinamide] |
| 700 | C#CC(C)(CC)NC(=O)c1cccnc1Nc1ccc(Cl)c(OC)c1 (stereo not shown) [Example 197, 2-(4-Chloro-3-methoxyphenylamino)-N-(3-methylpent-1-yn-3-yl)nicotinamide] |
| 200 | C#CC(C)(CC)NC(=O)c1cccnc1Nc1ccc(F)cc1 (stereo not shown) [Example 198, 2-(4-Fluorophenylamino)-N-(3-methylpent-1-yn-3-yl)nicotinamide] |
